Where two headings read alike, the source gives them in different places.
Legend:
[1] = Evaluation of cortexolone-17α-propionate solubility (Example 1); assay type: physicochemical; settings: 5 g in 100 ml
Experimental: 5 g of cortexolone-17α-propionate was added to 100 ml of each of the solvents or solvent mixtures shown in Table 1, below, in an effort to produce a 5% w/v solution of cortexolone-17α-propionate. In the examples in Table 1, ethanol refers to ethanol 96°.

[2] = Clinical evaluation, excretion parameters at 1st and 55th application (Example 6); assay type: in vivo, human; settings: for Analyte Excreted, Free / Analyte Excreted, Total: formulation of Example 4b on scalp
Experimental: The formulation described in Example 4b was studied in a clinical trial to evaluate its pharmacokinetic profile, safety, and tolerability. According to the study protocol, 1 ml of the formulation (corresponding to 50 mg of cortexolone-17α-propionate) was applied once a day on study day 1 and then twice daily thereafter on study days 2-28 to the areas of the scalp suffering from alopecia. Statistical analyses were performed using SAS® version 9.1.3, service pack 4 for Windows and Phoenix WinNonLin 6.3, Pharsight Corporation, USA.

[3] = Franz cell diffusion test 1 (Example 7); assay type: in vitro ADME; settings: for Permeation rate / Skin concentration: 48 h, saturated solution, 300 mg on 2.54 cm^2 skin, 32° C.
Experimental: In an in vitro study, the skin penetration potential of cortexolone-17α-propionate was compared to cyproterone acetate using a standard Franz cell. According to the protocol, 300 mg of each test formulations was applied as saturated solution with a concentration ranging from 0.7 to 1 weight (w/w) to 2.54 cm^2 of exposed skin area. The receptor chamber volume ranged from 4.75 ml to 6.4 ml of phosphate buffered saline/fetal calf serum (2:1) containing penicillin/streptomycin according to standard protocol, and was maintained at a temperature of 32° C.+/−1° C. Stirring was maintained at 300 rpm.
The experiments were conducted for 48 h in triplicate. 100 μl fractions were withdrawn at 5-7 time points during the 48 h test period. After withdrawing a 100 μl fraction for analysis, it was replaced with fresh receiver fluid in an equal volume. At the end of the experiment, the skin was taken from the Franz cells and the skin's stratum corneum was removed by tape stripping (20×) with transparent adhesive tape (Koren, Spain).
The strippings were analyzed by dissolution in a mixture of propylene glycol:oeyl alcohol 9:1. The resulting mixture was analyzed for concentration of cyproterone acetate and cortexolone-17α-propionate, with the results provided in Table 12, below.

[4] = system: AGA; test: Finasteride 1 mg tablets phase III clinical studies 087 and 089, published by the FDA (Example 11); assay type: in vivo, human; settings: original value divided by 5.1
Experimental: Based on the results of finasteride 1 mg tablets (PROPECIA®) described in the two Phase III clinical studies published online by the United States Food and Drug Administration (the FDA), it can be concluded that the mean change from baseline in non-vellus TAHC at month 6 for cortexolone-17α-propionate solution 5% (according to Example 4b), as reported in Example 9, is very similar to the mean change from baseline in non-vellus TAHC at month 6 observed in 2 phase III clinical trials on finasteride 1 mg tablets (tradename Propecia®) per os once daily. Table 20 below reports the change from baseline in TAHC at month 6 in the two finasteride studies (data of active finasteride groups) as described in the NDA for PROPECIA® published online by the FDA:
In the two finasteride studies, the target area was a 1-inch diameter circle, which corresponds to 5.1 cm^2. In order to compare the changes from baseline in TAHC at month 6 obtained in the finasteride studies and the change from baseline in TAHC at month 6 obtained with cortexolone-17α-propionate in the study of the present Example 9 (where the target area was 1 cm^2), the original finasteride data have been recalculated to take into account the differences between the total surfaces of the target areas (i.e., the values were divided by 5.1) as shown in Table 21.

[5] = system: AGA; settings: cited from earlier work
[6] = system: serum DHT as well as scalp DHT; settings: single oral administration of finasteride 1 mg; cited from earlier work
[7] = PROPECIA package insert; 1 mg tablets; cited from earlier work
[8] = 1st Application (Day 1), N = 18
[9] = 55th Application (Day 28), N = 17

Question: Which “Cortexolone-17α-propionate Solubility at Room Temperature” value (“Cortexolone-17α-propionate Solubility” for short) ([1]; Caprylocaproyl polyoxyl-8 glycerides NF (LABRASOL ®)) does the source give for `CCC(=O)O[C@]1(C(=O)CO)CC[C@H]2[C@@H]3CCC4=CC(=O)CC[C@]4(C)[C@H]3CC[C@@]21C` [Cortexolone-17α-propionate, 17α-propionyloxy-21-hydroxy-pregna-4-ene-3,20-dione] here?
Answer: Its value is “Sparingly soluble”.

Question: And the “Cortexolone-17α-propionate Solubility” value ([1]; Ethanol (96°))?
Answer: Its value is “Highly soluble”.

Question: And the “Cortexolone-17α-propionate Solubility” value ([1]; Ethanol/propylene glycol (1:1) v:v)?
Answer: Its value is “Soluble”.

Question: And the “Cortexolone-17α-propionate Solubility” value ([1]; Ethanol/propylene glycol/TRANSCUTOL ® (1:1:1) v:v)?
Answer: Its value is “Very soluble”.

Question: And the “Cortexolone-17α-propionate Solubility” value ([1]; Isopropyl myristate)?
Answer: The value was “Insoluble”.

Question: And the “Cortexolone-17α-propionate Solubility” value ([1]; Isopropyl palmitate)?
Answer: Its value is “Insoluble”.

Question: And the “Cortexolone-17α-propionate Solubility” value ([1]; Propylene glycol)?
Answer: Its value is “Sparingly soluble”.

Question: And the “Cortexolone-17α-propionate Solubility” value ([1]; TRANSCUTOL ®/water (1:1) v:v)?
Answer: The value was “Insoluble”.

Question: And the “Cortexolone-17α-propionate Solubility” value ([1]; TRANSCUTOL ®/water/ethanol (1:1:1) v:v)?
Answer: Its value is “Soluble”.

Question: What about the “Cortexolone-17α-propionate Solubility” value ([1]; TRANSCUTOL ®) of the same compound?
Answer: Its value is “Very soluble”.

Question: What about the “Cortexolone-17α-propionate Solubility” value ([1]; Water/propylene glycol/TRANSCUTOL ® (1:1:1) v:v) of the same compound?
Answer: Its value is “Insoluble”.

Question: And the “Cortexolone-17α-propionate Solubility” value ([1]; Water/propylene glycol/TRANSCUTOL ® (1:1:2) v:v)?
Answer: Its value is “Soluble”.

Question: And the “Cortexolone-17α-propionate Solubility” value ([1]; Water)?
Answer: Its value is “Insoluble”.

Question: And the “% Excreted, Free” value [2, 8]?
Answer: Its value is 0 ± 0%.

Question: And the “% Excreted, Total” value [2, 8]?
Answer: Its value is 0.25 ± 0.10%.

Question: And the “Analyte Excreted, Free” value [2, 8]?
Answer: The value was 0.16 ± 0.34 µg.

Question: And the “Analyte Excreted, Total” value [2, 8]?
Answer: The value was 126.37 ± 48.99 µg.

Question: What about the “Analyte Excreted, Free” value [2, 9] of the same compound?
Answer: The value was 2.72 ± 1.54 µg.

Question: And the “Analyte Excreted, Total” value [2, 9]?
Answer: The value was 429.53 ± 178.24 µg.

Question: What about the Permeation rate [3] of the same compound?
Answer: Its Permeation rate is 1410 ± 137 ng/mL/h.

Question: What about the Skin concentration [3] of the same compound?
Answer: Its Skin concentration is 231 ± 19 µg/g.

Question: What about the “permeates skin, times as much as cyproterone acetate” value ([3]; versus cyproterone acetate) of the same compound?
Answer: Its value is “about 3 times”.

Question: What about the “permeation rate, times greater than cyproterone acetate” value ([3]; versus cyproterone acetate) of the same compound?
Answer: The value was “about 10 times”.

Question: What does the source list for `CC(=O)O[C@]1(C(C)=O)CC[C@H]2[C@@H]3C=C(Cl)C4=CC(=O)[C@@H]5C[C@@H]5[C@]4(C)[C@H]3CC[C@@]21C` [Cyproterone Acetate, cyproterone acetate, reference compound]?
Answer: Permeation rate [3]: 141 ± 17 ng/mL/h; Skin concentration [3]: 89.4 ± 4.6 µg/g

Question: For `CC(C)(C)NC(=O)[C@H]1CC[C@H]2[C@@H]3CC[C@H]4NC(=O)C=C[C@]4(C)[C@H]3CC[C@]12C` [finasteride], which “Change from Baseline in non-vellus TAHC at Month 6, recalculated over a target area of 1 cm^2” value ([4]; Combined (study 087 + 089)) is on record?
Answer: The value was 12.2.

Question: What about the “Change from Baseline in non-vellus TAHC at Month 6, recalculated over a target area of 1 cm^2” value ([4]; Study 087) of the same compound?
Answer: The value was 13.6.

Question: And the “Change from Baseline in non-vellus TAHC at Month 6, recalculated over a target area of 1 cm^2” value ([4]; Study 089)?
Answer: The value was 11.5.

Question: And the “Change from Baseline in non-vellus TAHC at Month 6” value ([5]; Combined (study 087 + 089), target area 5.1 cm^2)?
Answer: The value was 62.4.

Question: What about the “Change from Baseline in non-vellus TAHC at Month 6” value ([5]; Study 087, target area 1-inch diameter circle, 5.1 cm^2, 1 mg per os once daily) of the same compound?
Answer: Its value is 69.5.

Question: What about the “Change from Baseline in non-vellus TAHC at Month 6” value ([5]; Study 089, target area 1-inch diameter circle, 5.1 cm^2, 1 mg per os once daily) of the same compound?
Answer: Its value is 58.4.

Question: What about the “decrease of serum DHT as well as scalp DHT compared to baseline” value [6] of the same compound?
Answer: The value was “up to 70%”.

Question: And the “patients with adverse events (decreased libido, erectile dysfunction, ejaculation disorders, decreased volume of ejaculate)” value [7]?
Answer: Its value is 1%.

Question: With `C[C@]12CCC(=O)C=C1CC[C@@H]1[C@@H]2CC[C@@]2(C)[C@H]1CC[C@]2(O)C(=O)CO` [Cortexolone, cortexolone] as the compound, how does the “Analyte Excreted, Free” value [2, 8] read?
Answer: The value was “BLQL”.

Question: What about the “Analyte Excreted, Total” value [2, 8] of the same compound?
Answer: The value was 0.06 ± 0.26 µg.

Question: What about the “Analyte Excreted, Free” value [2, 9] of the same compound?
Answer: Its value is “BLQL”.

Question: And the “Analyte Excreted, Total” value [2, 9]?
Answer: Its value is 0.64 ± 0.74 µg.
